Source: patent US12091425B2 (AMGEN INC., priority 2016, dated 2024)

Each compound was assayed against T1, Mcl-1/Bim interaction, recombinant human Mcl-1 (171-327) (Homo sapiens, UniProt Q07820) (assay: Cell free Mcl-1: Bim Affinity Assay (Mcl-1 HTRF)). Settings: TR-FRET, 0.1 nM Mcl-1 (171-327), 0.05 nM biotin-Bim (51-76).
T1 construct: made in house
Type: binding
Procedure: Cell free Mcl-1: Bim Affinity Assay (Mcl-1 HTRF)
The inhibition of the Mcl-1/Bim interaction was measured using a time-resolved fluorescence resonance energy transfer (TR-FRET) assay. […] A biotinylated peptide derived from human Bim (residues 51-76) was purchased from CPC Scientific (San Jose, CA). The TR-FRET assay was conducted in a 384-well white OptiPlatem (PerkinElmer, Waltham, MA) in a total volume of 40 μL. […] The reaction plates were further incubated overnight and then were read on an Envision® multimode reader (PerkinElmer). […] The IC50 values of test compounds were determined from duplicate data by analyzing competition curves using a four-parameter sigmoidal model in GraphPad Prism (GraphPad Software, San Diego, CA) or in Genedata Screener® (Genedata, Basel, Switzerland).

T1 sequence (Q07820 171-327): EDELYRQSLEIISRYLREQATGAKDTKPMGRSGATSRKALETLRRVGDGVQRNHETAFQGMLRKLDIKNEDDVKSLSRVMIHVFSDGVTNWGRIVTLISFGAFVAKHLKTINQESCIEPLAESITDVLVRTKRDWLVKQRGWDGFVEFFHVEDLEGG

Question: For CC[C@@H]1CCCOC[C@@H]2CC[C@H]2CN2C[C@@]3(CCCc4cc(Cl)ccc43)COc3ccc(cc32)C(=O)NS1(=O)=O (single isomer, unassigned) [Example 368], which IC50 is on record?
Answer: 3.74 nM

Question: With CC[C@H]1CCCOC[C@@H]2CC[C@H]2CN2C[C@@]3(CCCc4cc(Cl)ccc43)COc3ccc(cc32)C(=O)NS1(=O)=O (single isomer, unassigned) [Example 369] as the compound, how does the IC50 read?
Answer: 3.98 nM

Question: Which IC50 does the source give for O=C1NS(=O)(=O)[C@H](C(F)(F)F)CCCC[C@H](O)[C@@H]2CC[C@H]2CN2C[C@@]3(CCCc4cc(Cl)ccc43)COc3ccc1cc32 (single isomer, unassigned) [Example 432] here?
Answer: 0.996 nM

Question: Which IC50 does the source give for O=C1NS(=O)(=O)[C@@H](C(F)(F)F)CCCC[C@H](O)[C@@H]2CC[C@H]2CN2C[C@@]3(CCCc4cc(Cl)ccc43)COc3ccc1cc32 (single isomer, unassigned) [Example 433] here?
Answer: 3.23 nM

Question: CCC[C@@H]1CC/C=C/[C@H](O)[C@@H]2CC[C@H]2CN2C[C@@]3(CCCc4cc(Cl)ccc43)COc3ccc(cc32)C(=O)NS1(=O)=O (single isomer, unassigned) [Example 434] was tested. Which IC50 did it give?
Answer: 0.273 nM

Question: Which IC50 does the source give for CN(C)C(=O)[C@@H]1CC/C=C/[C@H](O)[C@@H]2CC[C@H]2CN2C[C@@]3(CCCc4cc(Cl)ccc43)COc3ccc(cc32)C(=O)NS1(=O)=O (single isomer, unassigned) [Example 436] here?
Answer: 0.243 nM

Question: CN(C)C(=O)[C@H]1CC/C=C/[C@H](O)[C@@H]2CC[C@H]2CN2C[C@@]3(CCCc4cc(Cl)ccc43)COc3ccc(cc32)C(=O)NS1(=O)=O (single isomer, unassigned) [Example 437] was tested. Which IC50 did it give?
Answer: 3.77 nM

Question: O=C1NS(=O)(=O)C(C(F)F)CCC=CC(O)C2CCC2CN2CC3(CCCc4cc(Cl)ccc43)COc3ccc1cc32 (single isomer, unassigned) [Example 438] was tested. Which IC50 did it give?
Answer: 0.731 nM

Question: CCOC[C@@H]1CC/C=C/[C@H](O)[C@@H]2CC[C@H]2CN2C[C@@]3(CCCc4cc(Cl)ccc43)COc3ccc(cc32)C(=O)NS1(=O)=O (single isomer, unassigned) [Example 439] was tested. Which IC50 did it give?
Answer: 0.321 nM

Question: How did the IC50 turn out when CCOC[C@H]1CC/C=C/[C@H](O)[C@@H]2CC[C@H]2CN2C[C@@]3(CCCc4cc(Cl)ccc43)COc3ccc(cc32)C(=O)NS1(=O)=O (single isomer, unassigned) [Example 440] was run?
Answer: 2.44 nM

Question: How did the IC50 turn out when C=C1CC/C=C/[C@H](O)[C@@H]2CC[C@H]2CN2C[C@@]3(CCCc4cc(Cl)ccc43)COc3ccc(cc32)C(=O)NS1(=O)=O (single isomer, unassigned) [Example 441] was run?
Answer: 0.632 nM

Question: COCC[C@@H]1CC/C=C/[C@H](O)[C@@H]2CC[C@H]2CN2C[C@@]3(CCCc4cc(Cl)ccc43)COc3ccc(cc32)C(=O)NS1(=O)=O (single isomer, unassigned) [Example 442] was tested. Which IC50 did it give?
Answer: 0.292 nM

Question: With COCC[C@H]1CC/C=C/[C@H](O)[C@@H]2CC[C@H]2CN2C[C@@]3(CCCc4cc(Cl)ccc43)COc3ccc(cc32)C(=O)NS1(=O)=O (single isomer, unassigned) [Example 443] as the compound, how does the IC50 read?
Answer: 1.51 nM

Question: For O=C1NS(=O)(=O)[C@H](CO)CC/C=C/[C@H](O)[C@@H]2CC[C@H]2CN2C[C@@]3(CCCc4cc(Cl)ccc43)COc3ccc1cc32 (single isomer, unassigned) [Example 445], which IC50 is on record?
Answer: 0.461 nM

Question: For COCCOCC1CCC=CC(O)C2CCC2CN2CC3(CCCc4cc(Cl)ccc43)COc3ccc(cc32)C(=O)NS1(=O)=O (single isomer, unassigned) [Example 447], which IC50 is on record?
Answer: 0.378 nM

Question: How did the IC50 turn out when COCCOC[C@@H]1CC/C=C/[C@H](O)[C@@H]2CC[C@H]2CN2C[C@@]3(CCCc4cc(Cl)ccc43)COc3ccc(cc32)C(=O)NS1(=O)=O (single isomer, unassigned) [Example 448] was run?
Answer: 0.951 nM

Question: Which IC50 does the source give for O=C1NS(=O)(=O)C(CO)CCC=CCC2CCC2CN2CC3(CCCc4cc(Cl)ccc43)COc3ccc1cc32 (single isomer, unassigned) [Example 450] here?
Answer: 6.76 nM

Question: How did the IC50 turn out when O=C1NS(=O)(=O)[C@@H](CO)CC/C=C\C[C@@H]2CC[C@H]2CN2C[C@@]3(CCCc4cc(Cl)ccc43)COc3ccc1cc32 (single isomer, unassigned) [Example 451] was run?
Answer: 11.5 nM

Same assay, conditions: cell free Mcl-1:Bim TR-FRET, recombinant human Mcl-1 (171-327)

Question: O=C1NS(=O)(=O)CCC/C=C/C[C@@H]2CC[C@H]2CN2C[C@@]3(CCCc4cc(Cl)ccc43)COc3ccc1cc32 (single isomer, unassigned) [Example 495] was tested. Which IC50 did it give?
Answer: 2.48 nM

Question: For O=C1NS(=O)(=O)C/C=C\CCC[C@@H]2CC[C@H]2CN2C[C@@]3(CCCc4cc(Cl)ccc43)COc3ccc1cc32 (single isomer, unassigned) [Example 497], which IC50 is on record?
Answer: 4 nM

Question: For O=C1NS(=O)(=O)C/C=C/CCC[C@@H]2CC[C@H]2CN2C[C@@]3(CCCc4cc(Cl)ccc43)COc3ccc1cc32 (single isomer, unassigned) [Example 498], which IC50 is on record?
Answer: 9.03 nM

Question: How did the IC50 turn out when O=C1NS(=O)(=O)C/C=C/[C@H](O)CC[C@@H]2CC[C@H]2CN2C[C@@]3(CCCc4cc(Cl)ccc43)COc3ccc1cc32 (single isomer, unassigned) [Example 500] was run?
Answer: 7.08 nM

Question: For O=C1NS(=O)(=O)C/C=C/[C@@H](O)CC[C@@H]2CC[C@H]2CN2C[C@@]3(CCCc4cc(Cl)ccc43)COc3ccc1cc32 (single isomer, unassigned) [Example 501], which IC50 is on record?
Answer: 1.49 nM

Question: For O=C1NS(=O)(=O)CCC[C@H](O)CC[C@@H]2CC[C@H]2CN2C[C@@]3(CCCc4cc(Cl)ccc43)COc3ccc1cc32 (single isomer, unassigned) [Example 502, (1S,3′R,6′S,9′R)-6-chloro-9′-hydroxy-3,4-dihydro-2H,15′H-spiro[naphthalene-1,22′-[20]oxa[13]thia[1,14]diazatetracyclo[14.7.2.0^3,6.0^19,24]pentacosa [16,18,24]trien]-15′-one 13′,13′-dioxide or (1S,3′R,6′S,9′S)-6-chloro-9′-hydroxy-3,4-dihydro-2H,15′H-spiro[naphthalene-1,22′-[20]oxa[13]thia[1,14]diazatetracyclo[14.7.2.0^3,6.0^19,24]pentacosa [16,18,24]trien]-15′-one 13′,13′-dioxide], which IC50 is on record?
Answer: 2.31 nM

Question: Which IC50 does the source give for O=C1NS(=O)(=O)CCC[C@@H](O)CC[C@@H]2CC[C@H]2CN2C[C@@]3(CCCc4cc(Cl)ccc43)COc3ccc1cc32 (single isomer, unassigned) [Example 503, (1S,3′R,6′S,9′S)-6-chloro-9′-hydroxy-3,4-dihydro-2H,15′H-spiro[naphthalene-1,22′-[20]oxa[13]thia[1,14]diazatetracyclo[14.7.2.0^3,6.0^19,24]pentacosa [16,18,24]trien]-15′-one 13′,13′-dioxide or (1S,3′R,6′S,9′R)-6-chloro-9′-hydroxy-3,4-dihydro-2H,15′H-spiro[naphthalene-1,22′-[20]oxa[13]thia[1,14]diazatetracyclo[14.7.2.0^3,6.0^19,24]pentacosa [16,18,24]trien]-15′-one 13′,13′-dioxide] here?
Answer: 3.96 nM

Question: Which IC50 does the source give for C[C@@H]1[C@@H](O)C/C=C/C[C@@H]2CC[C@H]2CN2C[C@@]3(CCCc4cc(Cl)ccc43)COc3ccc(cc32)C(=O)NS1(=O)=O (single isomer, unassigned) [Example 504] here?
Answer: 2.55 nM

Question: For C[C@@H]1[C@H](O)C/C=C/C[C@@H]2CC[C@H]2CN2C[C@@]3(CCCc4cc(Cl)ccc43)COc3ccc(cc32)C(=O)NS1(=O)=O (single isomer, unassigned) [Example 506], which IC50 is on record?
Answer: 15.5 nM

Question: With CC1C(O)CC=CCC2CCC2CN2CC3(CCCc4cc(Cl)ccc43)COc3ccc(cc32)C(=O)NS1(=O)=O (single isomer, unassigned) [Example 507] as the compound, how does the IC50 read?
Answer: 18.3 nM

Question: C[C@@H](O)C[C@H]1CC/C=C/[C@H](O)[C@@H]2CC[C@H]2CN2C[C@@]3(CCCc4cc(Cl)ccc43)COc3ccc(cc32)C(=O)NS1(=O)=O (single isomer, unassigned) [Example 539] was tested. Which IC50 did it give?
Answer: 2.78 nM

Question: C[C@H](O)C[C@H]1CC/C=C/[C@H](O)[C@@H]2CC[C@H]2CN2C[C@@]3(CCCc4cc(Cl)ccc43)COc3ccc(cc32)C(=O)NS1(=O)=O (single isomer, unassigned) [Example 551] was tested. Which IC50 did it give?
Answer: 3.43 nM

Question: Which IC50 does the source give for O=C1NS(=O)(=O)C[C@@H](O)/C=C/C[C@H](O)[C@@H]2CC[C@H]2CN2C[C@@]3(CCCc4cc(Cl)ccc43)COc3ccc1cc32 (single isomer, unassigned) [Example 597] here?
Answer: 1.46 nM

Question: How did the IC50 turn out when O=C1NS(=O)(=O)C[C@H](O)/C=C/C[C@H](O)[C@@H]2CC[C@H]2CN2C[C@@]3(CCCc4cc(Cl)ccc43)COc3ccc1cc32 (single isomer, unassigned) [Example 598] was run?
Answer: 1.49 nM

Question: For CC#CC1=CC(O)CCC(C)S(=O)(=O)NC(=O)c2ccc3c(c2)N(CC2CCC12)CC1(CCCc2cc(Cl)ccc21)CO3 (single isomer, unassigned) [Example 605], which IC50 is on record?
Answer: 0.943 nM

Question: With CC#CC1=CC(O)CCC(C)S(=O)(=O)NC(=O)c2ccc3c(c2)N(CC2CCC12)CC1(CCCc2cc(Cl)ccc21)CO3 (single isomer, unassigned) [Example 606] as the compound, how does the IC50 read?
Answer: 13.5 nM

Question: With C[C@@H]1CCC2=NO[C@H](C2)[C@@H]2CC[C@H]2CN2C[C@@]3(CCCc4cc(Cl)ccc43)COc3ccc(cc32)C(=O)NS1(=O)=O (single isomer, unassigned) [Example 609] as the compound, how does the IC50 read?
Answer: 3.84 nM

Question: With O=C1NS(=O)(=O)[C@H](CCOc2ccc(Br)cc2)CC/C=C/[C@H](O)[C@@H]2CC[C@H]2CN2C[C@@]3(CCCc4cc(Cl)ccc43)COc3ccc1cc32 (single isomer, unassigned) [Example 625] as the compound, how does the IC50 read?
Answer: 38.3 nM

Question: O=C(C[C@@H]1CC/C=C/[C@H](O)[C@@H]2CC[C@H]2CN2C[C@@]3(CCCc4cc(Cl)ccc43)COc3ccc(cc32)C(=O)NS1(=O)=O)Nc1cccc(Cl)c1 (single isomer, unassigned) [Example 627] was tested. Which IC50 did it give?
Answer: 10.1 nM
